Experimental data reported in the supplement of paper PMC10307832.

Assays:
Test in all cases: relative viability (nuclei count vs DMSO), 5 days (fraction); higher = more cells survive
QS11 + Decitabine = compound: C1CC2=C(C1)C=C(C=C2)OC3=NC(=C4C(=N3)N(C=N4)CC5=CC=C(C=C5)C6=CC=CC=C6)N[C@@H](CC7=CC=CC=C7)CO [QS11] + Nc1ncn([C@H]2C[C@H](O)[C@@H](CO)O2)c(=O)n1 [Decitabine] (partner 2 µM)
How it was run: (§1)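 Cells from lung cancer lines were seeded into 1536-well plates and, one day later, dosed by pin tool. Treatments were either a single drug or a fixed dose of an anchor drug with five library-drug doses (not always all listed) in √10 steps. After 5 days, nuclei were stained in a one-step fixation (final 0.05% Triton X-100, 1% formaldehyde, 1 ug/ml Hoechst) and counted on 4× images, and relative viability is the treated-to-vehicle nuclei ratio, as the median of duplicate plates.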

AZ628 + Pictilisib = compound: CC1=C(C=C(C=C1)NC(=O)C2=CC(=CC=C2)C(C)(C)C#N)NC3=CC4=C(C=C3)N=CN(C4=O)C [AZ628] + CS(=O)(=O)N1CCN(Cc2cc3nc(-c4cccc5[nH]ncc45)nc(N4CCOCC4)c3s2)CC1 [Pictilisib] (partner 1 µM)
How it was run: as §1

[1] = compound: C[As](C)SC[C@H](NC(=O)CC[C@H](N)C(=O)O)C(=O)NCC(=O)O [Darinaparsin] + CS(=O)(=O)N1CCN(Cc2cc3nc(-c4cccc5[nH]ncc45)nc(N4CCOCC4)c3s2)CC1 [Pictilisib] (partner 1 µM)
How it was run: as §1

QS11 + Pictilisib = compound: C1CC2=C(C1)C=C(C=C2)OC3=NC(=C4C(=N3)N(C=N4)CC5=CC=C(C=C5)C6=CC=CC=C6)N[C@@H](CC7=CC=CC=C7)CO [QS11] + CS(=O)(=O)N1CCN(Cc2cc3nc(-c4cccc5[nH]ncc45)nc(N4CCOCC4)c3s2)CC1 [Pictilisib] (partner 1 µM)
How it was run: as §1

Row | Cell Line | relative viability (QS11 + Decitabine; first compound 0.08 µM) | relative viability (QS11 + Decitabine; first compound 0.253 µM) | relative viability (QS11 + Decitabine; first compound 0.8 µM) | relative viability (QS11 + Decitabine; first compound 2.53 µM) | relative viability (QS11 + Decitabine; first compound 8 µM) | relative viability (AZ628 + Pictilisib; first compound 0.08 µM) | relative viability (AZ628 + Pictilisib; first compound 0.253 µM) | relative viability (AZ628 + Pictilisib; first compound 0.8 µM) | relative viability (AZ628 + Pictilisib; first compound 2.53 µM) | relative viability (AZ628 + Pictilisib; first compound 8 µM) | relative viability ([1]; first compound 0.08 µM) | relative viability ([1]; first compound 0.8 µM) | relative viability ([1]; first compound 2.53 µM) | relative viability ([1]; first compound 8 µM) | relative viability (QS11 + Pictilisib; first compound 0.08 µM) | relative viability (QS11 + Pictilisib; first compound 0.253 µM) | relative viability (QS11 + Pictilisib; first compound 0.8 µM) | relative viability (QS11 + Pictilisib; first compound 2.53 µM) | relative viability (QS11 + Pictilisib; first compound 8 µM)
1 | NCI-H596 | 1.26 | 0.87 | 0.971 | 1.17 | 1.04 | 0.36 | 0.383 | 0.382 | 0.376 | 0.42 | 0.396 | 0.397 | 0.416 | 0.378 | 0.382 | 0.189 | 0.516 | 0.404 | 0.438
2 | NCI-H661 | 0.511 | 0.585 | 0.474 | 0.554 | 0.46 | 0.401 | 0.312 | 0.302 | 0.353 | 0.331 | 0.422 | 0.4 | 0.491 | 0.42 | 0.424 | 0.397 | 0.407 | 0.376 | 0.383
3 | NCI-H727 | 0.767 | 0.855 | 0.762 | 0.899 | 0.61 | 0.314 | 0.199 | 0.184 | 0.281 | 0.28 | 0.405 | 0.425 | 0.297 | 0.465 | 0.355 | 0.304 | 0.407 | 0.279 | 0.229
4 | NCI-H1666 | 0.746 | 0.748 | 0.653 | 0.699 | 0.485 | 0.404 | 0.296 | 0.339 | 0.362 | 0.313 | 0.418 | 0.458 | 0.454 | 0.53 | 0.328 | 0.359 | 0.377 | 0.474 | 0.423
5 | COR-L23 | 0.44 | 0.433 | 0.443 | 0.357 | 0.302 | 0.767 | 0.73 | 0.651 | 0.653 | 0.346 | 1.06 | 0.706 | 0.41 | 0.932 | 0.807 | 0.717 | 0.806 | 0.662 | 0.681
6 | NCI-H460 | 0.578 | 0.477 | 0.298 | 0.503 | 0.382 | 0.323 | 0.25 | 0.254 | 0.269 | 0.127 | 0.479 | 0.415 | 0.373 | 0.406 | 0.301 | 0.351 | 0.532 | 0.352 | 0.473
7 | SK-MES-1 | 0.361 | 0.444 | 0.339 | 0.447 | 0.351 | 0.337 | 0.372 | 0.28 | 0.327 | 0.329 | 0.354 | 0.353 | 0.336 | 0.401 | 0.379 | 0.315 | 0.381 | 0.306 | 0.311
8 | LC-2-ad | 0.776 | 0.775 | 0.691 | 0.722 | 0.712 | 0.472 | 0.344 | 0.122 | 0.261 | 0.162 | 0.564 | 0.456 | 0.32 | 0.533 | 0.506 | 0.478 | 0.441 | 0.534 | 0.547
9 | BEN | 0.717 | 0.775 | 0.74 | 0.713 | 0.695 | 0.621 | 0.523 | 0.487 | 0.49 | 0.458 | 0.709 | 0.636 | 0.498 | 0.659 | 0.554 | 0.641 | 0.529 | 0.524 | 0.705
10 | NCI-H1651 | 0.591 | 0.641 | 0.54 | 0.566 | 0.578 | 0.698 | 0.685 | 0.587 | 0.537 | 0.599 | 0.721 | 0.554 | 0.471 | 0.865 | 0.604 | 0.657 | 0.53 | 0.471 | 0.439
11 | EKVX | 0.321 | 0.44 | 0.327 | 0.392 | 0.341 | 0.487 | 0.489 | 0.471 | 0.472 | 0.333 | 0.508 | 0.404 | 0.452 | 0.488 | 0.444 | 0.379 | – | 0.413 | 0.467
12 | COR-L 105 | 0.747 | 0.633 | 0.731 | 0.639 | 0.599 | 0.466 | 0.418 | 0.384 | 0.353 | 0.334 | 0.446 | 0.411 | – | 0.429 | 0.346 | 0.359 | 0.34 | 0.372 | 0.347
13 | NCI-H1650 | 0.453 | 0.447 | 0.296 | 0.56 | 0.406 | 0.741 | 0.604 | 0.614 | 0.5 | 0.342 | 0.666 | 0.503 | 0.623 | 0.59 | 0.671 | 0.458 | 0.584 | 0.584 | 0.524
14 | HCC-15 | 0.697 | 0.737 | 0.573 | 0.586 | 0.525 | 0.729 | 0.533 | 0.52 | 0.553 | 0.33 | 0.879 | 0.71 | 0.72 | 0.92 | 0.732 | 0.868 | – | 0.816 | 0.719
15 | ChaGo-K-1 | – | 0.515 | 0.5 | 0.56 | 0.443 | 0.889 | – | 0.474 | 0.756 | 0.743 | 0.947 | 0.693 | 0.732 | 0.662 | – | 0.841 | 0.882 | 1.24 | 1.05
16 | SK-LU-1 | 0.586 | 0.59 | 0.595 | 0.6 | 0.57 | 0.429 | 0.375 | 0.534 | 0.467 | 0.373 | 0.661 | 0.58 | 0.502 | 0.789 | 0.455 | 0.679 | 0.534 | 0.552 | 0.531
17 | LCLC-103H | 0.701 | 0.815 | – | 0.756 | 0.711 | 0.554 | 0.587 | 0.632 | 0.55 | 0.583 | 0.52 | 0.566 | 0.593 | 0.604 | 0.636 | 0.543 | 0.591 | 0.74 | 0.609
